According to US20230002374A1, “GPR52 MODULATOR COMPOUNDS” (Heptares Therapeutics Limited, priority 2019, published 2023):
pEC50: −log10 of the molar value.

Biological target: human GPR52 (Homo sapiens, UniProt Q9Y2T5)
Test: GPR52 Agonist Functional cAMP Assay;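 note: HEKf cells transduced with GPR52 BacMam for 24 h, 2000 per well, exposed to compounds 30 min at 37° C with 0.5 mM IBMX, cAMP read by HTRF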
Settings: for Emax: maximal response normalised to DMSO (0%) and maximal compound 7m (J. Med. Chem., 2014, 57, 5226) response (100%); for pEC50: pEC50 average, HEKf cells infected with human GPR52 BacMam virus, cAMP HTRF, 30 min at 37° C.

human GPR52, sequence (Q9Y2T5 whole entry): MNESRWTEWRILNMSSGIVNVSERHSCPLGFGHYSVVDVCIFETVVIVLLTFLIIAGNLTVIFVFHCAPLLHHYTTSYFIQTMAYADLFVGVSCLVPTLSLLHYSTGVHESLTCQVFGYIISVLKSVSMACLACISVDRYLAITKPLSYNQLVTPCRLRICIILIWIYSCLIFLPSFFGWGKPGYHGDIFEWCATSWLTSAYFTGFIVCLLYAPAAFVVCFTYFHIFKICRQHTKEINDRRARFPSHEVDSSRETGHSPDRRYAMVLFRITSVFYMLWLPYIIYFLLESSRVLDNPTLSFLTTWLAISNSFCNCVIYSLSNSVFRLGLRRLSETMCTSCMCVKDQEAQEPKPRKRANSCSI

| Emax | pEC50 | Structure (SMILES) |
| --- | --- | --- |
| 77% | 6.10 | O=C1NCCc2c1cnn2-c1ccnc(Cc2cc(C(F)(F)F)ccc2F)c1 [Example 30, 1-(2-(2-fluoro-5-(trifluoromethyl)benzyl)pyridin-4-yl)-1,5,6,7-tetrahydro-4H-pyrazolo[4,3-c]pyridin-4-one] |
| 95% | 6.90 | O=C1NCCc2c1cnn2-c1ccnc(Cc2cc(Cl)cc(Cl)c2)c1 [Example 31, 1-(2-(3,5-dichlorobenzyl)pyridin-4-yl)-1,5,6,7-tetrahydro-4H-pyrazolo[4,3-c]pyridin-4-one] |
| 61% | 6.40 | O=C1NCCc2c1cnn2-c1ccnc(Cc2ccc(C(F)(F)F)cc2)c1 [Example 32, 1-(2-(4-(trifluoromethyl)benzyl)pyridin-4-yl)-1,5,6,7-tetrahydro-4H-pyrazolo[4,3-c]pyridin-4-one] |
| 58% | 5.50 | N#Cc1cc(Cc2cc(-n3ncc4c3CCNC4=O)ccn2)cc(C(F)(F)F)c1 [Example 33, 3-((4-(4-oxo-4,5,6,7-tetrahydro-1H-pyrazolo[4,3-c]pyridin-1-yl)pyridin-2-yl)methyl)-5-(trifluoromethyl)benzonitrile] |
| 54% | 6.00 | O=C1NCCc2c1cnn2-c1ccnc(Cc2cc(C(F)(F)F)cc(C(F)(F)F)c2)c1 [Example 34, 1-(2-(3,5-bis(trifluoromethyl)benzyl)pyridin-4-yl)-1,5,6,7-tetrahydro-4H-pyrazolo[4,3-c]pyridin-4-one] |
| 40% | 5.50 | O=C(c1cc(F)cc(C(F)(F)F)c1)c1cc(-n2ncc3c2CCNC3=O)ccn1 [Example 35, 1-(2-(3-fluoro-5-(trifluoromethyl)benzoyl)pyridin-4-yl)-1,5,6,7-tetrahydro-4H-pyrazolo[4,3-c]pyridin-4-one] |
| 92% | 6.30 | O=C1NCCc2c1cnn2-c1ccnc(C(O)c2cc(F)cc(C(F)(F)F)c2)c1 (stereo not drawn) [Example 36, 1-(2-((3-fluoro-5-(trifluoromethyl)phenyl)(hydroxy)methyl)pyridin-4-yl)-1,5,6,7-tetrahydro-4H-pyrazolo[4,3-c]pyridin-4-one] |
| 93% | 6.90 | O=C1NCCc2c1cnn2-c1ccnc(C(F)c2cc(F)cc(C(F)(F)F)c2)c1 (stereo not drawn) [Example 37, 1-(2-(fluoro(3-fluoro-5-(trifluoromethyl)phenyl)methyl)pyridin-4-yl)-1,5,6,7-tetrahydro-4H-pyrazolo[4,3-c]pyridin-4-one] |
| 55% | 6.20 | O=C1NCCc2c1cnn2-c1ccnc(C(F)(F)c2cc(F)cc(C(F)(F)F)c2)c1 [Example 38, 1-(2-(difluoro(3-fluoro-5-(trifluoromethyl)phenyl)methyl)pyridin-4-yl)-1,5,6,7-tetrahydro-4H-pyrazolo[4,3-c]pyridin-4-one] |
| 93% | 7.00 | CC1Cc2c(cnn2-c2ccnc(Cc3cc(F)cc(C(F)(F)F)c3)c2)C(=O)N1 (stereo not drawn) [Example 40, 1-(2-(3-fluoro-5-(trifluoromethyl)benzyl)pyridin-4-yl)-6-methyl-1,5,6,7-tetrahydro-4H-pyrazolo[4,3-c]pyridin-4-one] |
| 90% | 6.10 | O=C1NCCCc2c1nnn2-c1cc(Cc2cccc(C(F)(F)F)c2)ccn1 [Example 41, 1-(4-(3-(trifluoromethyl)benzyl)pyridin-2-yl)-5,6,7,8-tetrahydro-[1,2,3]triazolo[4,5-c]azepin-4(1H)-one] |
| 90% | 6.10 | O=C1NCCc2c1nnn2-c1cc(Cc2cccc(C(F)(F)F)c2)ccn1 [Example 42, 1-(4-(3-(trifluoromethyl)benzyl)pyridin-2-yl)-1,5,6,7-tetrahydro-4H-[1,2,3]triazolo[4,5-c]pyridin-4-one] |
| 86% | 6.60 | O=C1NCCc2nn(-c3cc(Cc4cccc(C(F)(F)F)c4)ccn3)nc21 [Example 43, 2-(4-(3-(trifluoromethyl)benzyl)pyridin-2-yl)-2,5,6,7-tetrahydro-4H-[1,2,3]triazolo[4,5-c]pyridin-4-one] |
| 74% | 5.70 | CN1CCc2nn(-c3cc(Cc4cccc(C(F)(F)F)c4)ccn3)nc2C1=O [Example 44, 5-methyl-2-(4-(3-(trifluoromethyl)benzyl)pyridin-2-yl)-2,5,6,7-tetrahydro-4H-[1,2,3]triazolo[4,5-c]pyridin-4-one] |
| 75% | 6.20 | O=C1NCCCc2nn(-c3cc(Cc4cccc(C(F)(F)F)c4)ccn3)nc21 [Example 45, 2-(4-(3-(trifluoromethyl)benzyl)pyridin-2-yl)-5,6,7,8-tetrahydro-[1,2,3]triazolo[4,5-c]azepin-4(2H)-one] |
| 90% | 6.70 | O=C1NCCCc2c1nnn2-c1cc(Cc2cc(F)cc(C(F)(F)F)c2)ccn1 [Example 46, 1-(4-(3-fluoro-5-(trifluoromethyl)benzyl)pyridin-2-yl)-5,6,7,8-tetrahydro-[1,2,3]triazolo[4,5-c]azepin-4(1H)-one] |
| 81% | 7.10 | O=C1NOCc2c1cnn2-c1cc(Cc2cc(F)cc(C(F)(F)F)c2)ccn1 [Example 47, 1-(4-(3-fluoro-5-(trifluoromethyl)benzyl)pyridin-2-yl)-1,7-dihydropyrazolo[4,3-c/][1,2]oxazin-4(5H)-one] |
| 95% | 7.40 | CC1CNC(=O)c2cnn(-c3ccnc(Cc4cc(F)cc(C(F)(F)F)c4)c3)c21 (stereo not drawn) [Example 50, 1-(2-(3-fluoro-5-(trifluoromethyl)benzyl)pyridin-4-yl)-7-methyl-1,5,6,7-tetrahydro-4H-pyrazolo[4,3-c]pyridin-4-one] |
| 95% | 6.90 | O=C1NCCc2c1ccn2-c1ccnc(Cc2cc(F)cc(C(F)(F)F)c2)c1 [Example 51, 1-(2-(3-fluoro-5-(trifluoromethyl)benzyl)pyridin-4-yl)-1,5,6,7-tetrahydro-4H-pyrrolo[3,2-c]pyridin-4-one] |
| 69% | 5.80 | O=C1NCCc2c1cnn2-c1ccnc(Oc2cc(F)cc(C(F)(F)F)c2)c1 [Example 52, 1-(2-(3-fluoro-5-(trifluoromethyl)phenoxy)pyridin-4-yl)-1,5,6,7-tetrahydro-4H-pyrazolo[4,3-c]pyridin-4-one] |
| 100% | 8.20 | O=C1NCCc2c1cnn2-c1ccnc(Cc2cc(F)cc(C3CC3)c2)c1 [Example 53, 1-(2-(3-cyclopropyl-5-fluorobenzyl)pyridin-4-yl)-1,5,6,7-tetrahydro-4H-pyrazolo[4,3-c]pyridin-4-one] |
| 63% | 6.40 | O=C1NCCc2c1cnn2-c1ccnc(Cc2ccc(C(F)(F)F)c(F)c2)c1 [Example 54, 1-(2-(3-fluoro-4-(trifluoromethyl)benzyl)pyridin-4-yl)-1,5,6,7-tetrahydro-4H-pyrazolo[4,3-c]pyridin-4-one] |
| 69% | 6.40 | COc1ccc(Cc2cc(-n3ncc4c3CCNC4=O)ccn2)cc1C(F)(F)F [Example 55, 1-(2-(4-methoxy-3-(trifluoromethyl)benzyl)pyridin-4-yl)-1,5,6,7-tetrahydro-4H-pyrazolo[4,3-c]pyridin-4-one] |
| 98% | 6.90 | O=C1NCCc2c1cnn2-c1cc(Cc2cc(F)cc(C(F)(F)F)c2)ncn1 [Example 56, 1-(6-(3-fluoro-5-(trifluoromethyl)benzyl)pyrimidin-4-yl)-1,5,6,7-tetrahydro-4H-pyrazolo[4,3-c]pyridin-4-one] |
